Experiments:
HIV-1 BA-L [1] = experiment: Inhibitory effect on HIV-1 infection to MAGI-CCR5 cell; assay type: cell-based; conditions: 100 μl medium containing 0.064 μM of Test Compound plus 100 μl medium with 300PFU HIV-1 BA-L, 2 days
Method: The plasmid where β-galactosidase gene was ligated downstream of HIV-1 LTR was introduced into CD4 positive HeLa cell, to which human CCR5 was further introduced to obtain transformant MAGI-CCR5. By using said transformant MAGI-CCR5, degree of HIV-1 infection was calculated from β-galactosidase activity (blue color due to decomposition of 5-bromo-4-chloro-3-indolyl-β-D-galactopyranoside). Specifically, MAGI-CCR5 cells were suspended in DMEM medium containing 10% serum to prepare 5×10^4 cells/ml suspension. To each well of 96 well plate was inoculated 200 μl of the suspension, and the cells were cultivated at 37° C. overnight. The medium was removed by means of suction, and to the residue was added 100 μl of the above medium containing 1.6 μM of Test Compound 96 or 0.064 μM of Test Compound 248 and 100 μl of the above medium containing 300PFU of HIV-1 BA-L cells. The cells were cultivated at 37° C. for 2 days. The medium was removed by means of suction. To the residue was added 200 μl of cell fixative (PBS containing 1% formaldehyde and 0.2% glutaraldehyde), and the mixture was allowed to stand at room temperature for 5 minutes and washed twice with PBS. […] The number of blue cells was counted by microscope and defined as the number of cells infected with HIV-1.

HIV-1 BA-L [2] = experiment: Inhibitory effect on HIV-1 infection to human PBMC; assay type: cell-based; conditions: human PBMC stimulated with PHA and IL-2; same amount of a solution containing 0.32 μM of Test Compound added; 7 days
Method: From normal person human peripheral blood mononuclear cells (PBMC) were separated, and the cells were stimulated with 10 μg/ml of PHA (Phytohemaglutinin) and 20 U/ml of interleukin-2 (IL-2) for 3 days. The cells were suspended in RPMI-1640 medium containing 20% serum to prepare 1×10^6/ml suspension. To the suspension were infected HIV-1 BA-L cells (20 ng as an amount of p24 antigen), and viruses were absorbed at 37° C. for 2 hours. The cells were washed and suspended in RPMI-1640 medium containing 20% serum and IL-2 20 U/ml to prepare 1×10^5/ml suspension. To the PBMC suspension was added the same amount of a solution which contains 2.0 μM of Test Compound 96 or 0.32 μM of Test Compound 248, and the cells were cultivated at 37° C. for 7 days in carbon dioxide gas incubator. The amount of p24 antigen in supernatant of the cultivated medium was determined by enzyme-linked immunosorbent assay (ELISA) and defined as degree of HIV-1 infection.

human CCR5 = target: T1, human CCR5 (Homo sapiens, UniProt P51681); experiment: CCR5 antagonistic activity ([125I]-RANTES binding to CHO/CCR5 cells); conditions: Test Compound 1 μM, 100 pM [125I]-RANTES, room temperature 30 minutes, read-out: Inhibition Rate (%) to CCR5 binding
T1 construct: expressed in transfected cells; host or cells: CHO-K1 cells, geneticin-resistant clone CHO/CCR5
T1 sequence (P51681 whole entry): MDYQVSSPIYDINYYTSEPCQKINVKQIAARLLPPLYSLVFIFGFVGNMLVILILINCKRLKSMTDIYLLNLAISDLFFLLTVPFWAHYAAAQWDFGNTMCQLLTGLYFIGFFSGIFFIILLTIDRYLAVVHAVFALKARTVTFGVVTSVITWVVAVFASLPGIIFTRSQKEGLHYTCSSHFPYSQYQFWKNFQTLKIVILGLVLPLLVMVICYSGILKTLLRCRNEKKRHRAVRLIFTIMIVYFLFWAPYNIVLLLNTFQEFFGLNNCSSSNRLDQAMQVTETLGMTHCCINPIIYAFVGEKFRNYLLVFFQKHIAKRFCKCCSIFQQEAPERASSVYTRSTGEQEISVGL
Method: Cloning of CCR5 gene was carried out by PCR (polymerase chain reaction) from human spleen cDNA. With using 0.5 ng of spleen cDNA (Toyobo, QUICK-Clone cDNA) as template, PCR was performed in DNA Thermal Cycler 480 (Perkin-Elmer) (reaction conditions: 30 cycles of 95° C. for 1 minute, 60° C. for 1 minute, and 75° C. for 5 minutes) by adding primer set, 5′-CAGGATCCGATG […]-3′ (25 pmol) and 5′-TCTAGATCACAAGCC CACAGATATTTCCTGCTCC-3′ (25 pmol), which were designed referring to nucleotide sequence of CCR5 gene reported by Samson et al. (Biochemistry, 35(11), 3362-3367 (1996)) and by using TaKaRa EX Taq (Takara Shuzo). The resultant PCR product was subjected to agarose gel electrophoresis to collect about 1.0 kb DNA fragment, which was subjected to Original TA Cloning Kit (Funakoshi) to carry out cloning of CCR5 gene.
The plasmid obtained in the above (1) was digested with restriction enzymes XbaI (Takara Shuzo) and BamHI (Takara Shuzo) and subjected to agarose gel electrophoresis to collect about 1.0 kb DNA fragment. The DNA fragment was mixed with plasmid pcDNA3.1 (Funakoshi) for expression in animal cells, said plasmid being digested with XbaI and BamHI, and they were ligated with DNA Ligation Kit Ver.2 (Takara Shuzo). The resulting plasmid was subjected to transformation of competent cell of E. coli JM109 (Takara Shuzo) to obtain plasmid pCKR5.
CHO-K1 cells were grown in 750 ml of tissue culture flask (Becton Dickinson) using Ham's F12 medium (Nihon Pharmaceutical) containing 10% fetal calf serum (Life Tech Oriental) and took off with 0.5 g/L trypsin-0.2 g/L EDTA (Life Tech Oriental). The cells were washed with PBS (Life Tech Oriental), centrifuged (1000 rpm, 5 minutes), and suspended in PBS. With using Gene Pulser (Bio-Rad Laboratories), DNA was introduced into the cells under the conditions shown below. That is, to the cuvette of 0.4 cm gap were added 8×10^6 cells and 10 μg of plasmid pCKR5 for expression of human CCR5, and electroporation was carried out under 0.25 kV of voltage and 960 μF of capacitance. The cells were transferred into Ham's F12 medium (Nihon Pharmaceutical) containing 10% fetal calf serum, and cultivated for 24 hours. The cells were again took off and centrifuged, and suspended in Ham's F12 medium (Nihon Pharmaceutical) containing 10% fetal calf serum and 500 μg/ml of geneticin (Life Tech Oriental). The suspension was diluted to give 1 cells/ml of the suspension, which was inoculated on 96 well plate (Becton Dickinson) to give geneticin resistant cells. The resulting geneticin resistant cells were cultivated in 96 well plate (Becton Dickinson), and cells expressing CCR5 were selected from the geneticin resistant cells. That is, in assay buffer (Ham's F12 medium containing 0.5% BSA and 20 mM HEPES (Wako Pure Chemical, pH7.2) to which was added 200 pM of [^125I]-RANTES (Amersham) as ligand, binding reaction was carried out at room temperature for 40 minutes, and the buffer was washed with cooled PBS. To the buffer was added 50 μl/well of 1M NaOH, and the mixture was stirred. Radioactivity was determined with γ-counter to select CHO/CCR5 cells which specifically bind to the ligand.
The CHO/CCR5 were inoculated on 96 well microplate (5×10^4 cells/well) and cultivated for 24 hours. […] Radio-activity was determined with Top-Count Micro Scintillation Counter (Packard Instrument, Inc.). […]

Cc1ccc(-c2ccc3c(c2)C=C(C(=O)Nc2ccc(C[N+](C)(C)C4CCOCC4)cc2)CCC3)cc1 [Compound 248, N,N-dimethyl-N-(4-(((2-(4-methylphenyl)-6,7-dihydro-5H-benzocyclohepten-8-yl)carbonyl)amino)benzyl)-N-(4-tetrahydropyranyl)ammonium chloride]
inhibition on HIV-1 infection (number of blue cells) (HIV-1 BA-L [1]): 100% | inhibition on HIV-1 infection (p24 antigen in supernatant, ELISA) (HIV-1 BA-L [2]): 74% | inhibition at 1 µM (human CCR5): 99%

— patent publication US6413947B1, “Anilide derivative, production and use thereof” (Takeda Chemical Industries, Ltd., priority 1997, dated 2002)
